Test results: US20080111109A1, “ORGANIC-ELECTROLUMINESCENCE-MATERIAL-CONTAINING SOLUTION, METHOD FOR FORMING THIN FILM OF ORGANIC ELECTROLUMINESCENCE MATERIAL, THIN FILM OF ORGANIC ELECTROLUMINESCENCE MATERIAL AND ORGANIC ELECTROLUMINESCENCE DEVICE” (Idemitsu Kosan Co., Ltd., priority 2006, published 2008)

Experiment: Solubility in the solvent of a naphthacene compound with para-bonded aromatic substituents
Format: physicochemical
Details: solvent not specified (aromatic, halogen type or ether type solvent)

- solubility: ≤ 0.1 wt %
Compound: c1ccc(-c2ccc(-c3c4ccccc4c(-c4ccc(-c5ccccc5)cc4-c4ccccc4)c4cc5ccccc5cc34)c(-c3ccccc3)c2)cc1
